Data: the NIST ThermoML archive (doi:10.1016/j.fluid.2019.112274)

Settings: Liquid; for thermal diffusivity: Dynamic light scattering; for speed of sound: Brillouin light scattering

CCCCCCCCCC(=O)OCC [ethyl decanoate]
Settings	speed of sound [m/s]	thermal diffusivity [m2/s]
295.34 K, 5000 kPa	–	8.46e-08
295.57 K, 10000 kPa	–	8.67e-08
295.72 K, 7000 kPa	–	8.54e-08
296.25 K, 3000 kPa	–	8.37e-08
296.31 K, 100 kPa	–	8.23e-08
300.71 K, 7000 kPa	1302.7	–
300.78 K, 100 kPa	1283.2	–
300.78 K, 10000 kPa	1329.5	–
300.79 K, 3000 kPa	1290.7	–
300.81 K, 5000 kPa	1295.7	–
310.13 K, 10000 kPa	–	8.5e-08
310.16 K, 5000 kPa	–	8.28e-08
310.19 K, 7000 kPa	–	8.37e-08
310.26 K, 3000 kPa	–	8.19e-08
310.29 K, 100 kPa	–	8.05e-08
310.58 K, 10000 kPa	1301.3	–
310.85 K, 100 kPa	1248.4	–
310.85 K, 5000 kPa	1265	–
310.93 K, 7000 kPa	1271.5	–
311.01 K, 3000 kPa	1258.4	–
320.9 K, 100 kPa	1213.6	–
320.91 K, 5000 kPa	1233.3	–
320.94 K, 3000 kPa	1226.4	–
320.98 K, 7000 kPa	1241.3	–
321 K, 10000 kPa	1269.6	–
324.97 K, 5000 kPa	–	8.07e-08
325.08 K, 7000 kPa	–	8.16e-08
325.11 K, 3000 kPa	–	7.98e-08
325.16 K, 10000 kPa	–	8.29e-08
325.23 K, 100 kPa	–	7.85e-08
330.76 K, 3000 kPa	1192.9	–
330.77 K, 7000 kPa	1210.4	–
330.79 K, 10000 kPa	1239.7	–
330.81 K, 100 kPa	1178.4	–
330.87 K, 5000 kPa	1199.5	–
339.12 K, 7000 kPa	1183	–
339.89 K, 10000 kPa	–	8.08e-08
340.05 K, 7000 kPa	–	7.95e-08
340.11 K, 5000 kPa	–	7.86e-08
340.16 K, 3000 kPa	–	7.78e-08
340.18 K, 100 kPa	–	7.64e-08
340.24 K, 100 kPa	1144.5	–
340.56 K, 10000 kPa	1209.4	–
340.76 K, 5000 kPa	1166.4	–
340.79 K, 3000 kPa	1157.6	–
350.12 K, 10000 kPa	1179.1	–
350.77 K, 3000 kPa	1124.1	–
350.89 K, 7000 kPa	1145.9	–
350.97 K, 5000 kPa	1133.3	–
350.99 K, 100 kPa	1106.3	–
355.14 K, 5000 kPa	–	7.65e-08
355.19 K, 100 kPa	–	7.44e-08
355.22 K, 7000 kPa	–	7.74e-08
355.25 K, 10000 kPa	–	7.86e-08
355.26 K, 3000 kPa	–	7.57e-08
360.27 K, 10000 kPa	1145.7	–
360.32 K, 100 kPa	1073.2	–
360.51 K, 5000 kPa	1102.5	–
360.55 K, 7000 kPa	1115.4	–
360.75 K, 3000 kPa	1090.9	–
369.47 K, 10000 kPa	1115.6	–
369.75 K, 3000 kPa	–	7.34e-08
369.77 K, 7000 kPa	–	7.5e-08
369.78 K, 5000 kPa	–	7.42e-08
369.78 K, 10000 kPa	–	7.63e-08
369.85 K, 100 kPa	–	7.21e-08
371.22 K, 100 kPa	1035.6	–
371.22 K, 7000 kPa	1081.7	–
371.31 K, 5000 kPa	1068.1	–
371.46 K, 3000 kPa	1054.6	–
379.56 K, 7000 kPa	1055.4	–
379.62 K, 5000 kPa	1040.4	–
379.78 K, 100 kPa	1005.8	–
379.78 K, 3000 kPa	1026.4	–
383.22 K, 10000 kPa	1069.6	–
384.3 K, 3000 kPa	–	7.11e-08
384.31 K, 100 kPa	–	6.99e-08
384.31 K, 7000 kPa	–	7.28e-08
384.32 K, 5000 kPa	–	7.2e-08
384.32 K, 10000 kPa	–	7.4e-08
389.06 K, 100 kPa	973.3	–
389.19 K, 5000 kPa	1010.9	–
389.22 K, 7000 kPa	1025	–
389.32 K, 3000 kPa	996.7	–
392.15 K, 10000 kPa	1042.5	–
399.55 K, 10000 kPa	–	7.23e-08
399.56 K, 3000 kPa	–	6.95e-08
399.57 K, 7000 kPa	–	7.11e-08
399.6 K, 100 kPa	–	6.82e-08
399.6 K, 5000 kPa	–	7.03e-08
400.76 K, 100 kPa	933.3	–
400.79 K, 3000 kPa	958.4	–
400.81 K, 7000 kPa	989.3	–
400.9 K, 5000 kPa	973.6	–
401.26 K, 10000 kPa	1015	–
408.81 K, 3000 kPa	933.4	–
409.55 K, 5000 kPa	946.8	–
410.3 K, 7000 kPa	960.7	–
410.85 K, 100 kPa	900.2	–
411.61 K, 10000 kPa	983.4	–
414.33 K, 10000 kPa	–	7.01e-08
414.35 K, 3000 kPa	–	6.73e-08
414.36 K, 7000 kPa	–	6.89e-08
414.41 K, 5000 kPa	–	6.81e-08
414.43 K, 100 kPa	–	6.61e-08
419.6 K, 100 kPa	871.4	–
419.67 K, 3000 kPa	899.1	–
419.68 K, 5000 kPa	915	–
419.73 K, 7000 kPa	932.2	–
423.29 K, 10000 kPa	949.4	–
429.05 K, 5000 kPa	–	6.58e-08
429.1 K, 3000 kPa	–	6.5e-08
429.14 K, 100 kPa	–	6.39e-08
429.25 K, 10000 kPa	–	6.78e-08
429.56 K, 100 kPa	839.8	–
429.56 K, 3000 kPa	868.5	–
429.6 K, 5000 kPa	884.8	–
430.45 K, 7000 kPa	901.1	–
432.01 K, 10000 kPa	925	–
439.2 K, 10000 kPa	903.9	–
439.28 K, 100 kPa	809.5	–
439.85 K, 3000 kPa	836.6	–
440.02 K, 5000 kPa	854.6	–
440.37 K, 7000 kPa	871.6	–
444.19 K, 100 kPa	–	6.21e-08
444.35 K, 5000 kPa	–	6.4e-08
444.38 K, 3000 kPa	–	6.32e-08
444.46 K, 10000 kPa	–	6.59e-08
448.51 K, 10000 kPa	878.1	–
449.52 K, 7000 kPa	845.4	–
450.25 K, 3000 kPa	805.8	–
450.25 K, 5000 kPa	825.6	–
451.03 K, 100 kPa	773.3	–
458.86 K, 5000 kPa	801.3	–
459.76 K, 100 kPa	–	5.97e-08
459.85 K, 3000 kPa	778.6	–
459.9 K, 3000 kPa	–	6.09e-08
460 K, 10000 kPa	–	6.34e-08
460.01 K, 7000 kPa	–	6.23e-08
460.11 K, 100 kPa	746.8	–
460.12 K, 5000 kPa	–	6.16e-08
460.2 K, 7000 kPa	816	–
463.71 K, 10000 kPa	837.3	–
469.25 K, 3000 kPa	752.4	–
469.28 K, 5000 kPa	771.9	–
469.32 K, 7000 kPa	792	–
469.45 K, 100 kPa	719.5	–
470.42 K, 10000 kPa	819.1	–
475.26 K, 3000 kPa	–	5.84e-08
475.27 K, 100 kPa	–	5.74e-08
475.31 K, 7000 kPa	–	5.99e-08
475.31 K, 10000 kPa	–	6.1e-08
475.35 K, 5000 kPa	–	5.92e-08
479.25 K, 100 kPa	691.6	–
479.29 K, 3000 kPa	724.5	–
479.47 K, 7000 kPa	764.5	–
479.9 K, 5000 kPa	743.2	–
481.5 K, 10000 kPa	791.1	–
488.69 K, 7000 kPa	740.9	–
489.53 K, 3000 kPa	–	5.62e-08
489.54 K, 5000 kPa	–	5.69e-08
489.54 K, 7000 kPa	–	5.76e-08
489.54 K, 10000 kPa	–	5.87e-08
489.57 K, 100 kPa	–	5.52e-08
490.41 K, 5000 kPa	715.7	–
490.81 K, 3000 kPa	693.8	–
492.02 K, 10000 kPa	764.5	–
499.48 K, 10000 kPa	745.9	–
500.41 K, 5000 kPa	690.3	–
500.55 K, 7000 kPa	711.6	–
500.76 K, 3000 kPa	667.8	–
504.58 K, 5000 kPa	–	5.45e-08
504.77 K, 7000 kPa	–	5.52e-08
504.79 K, 3000 kPa	–	5.39e-08
504.94 K, 10000 kPa	–	5.62e-08
505.38 K, 100 kPa	–	5.28e-08
509.33 K, 10000 kPa	722.7	–
510.27 K, 5000 kPa	666.3	–
510.41 K, 7000 kPa	686.9	–
510.65 K, 3000 kPa	642.8	–
519.26 K, 3000 kPa	–	5.2e-08
519.36 K, 5000 kPa	–	5.26e-08
519.41 K, 7000 kPa	–	5.33e-08
519.6 K, 10000 kPa	–	5.43e-08
520.04 K, 10000 kPa	696.8	–
520.19 K, 3000 kPa	619.7	–
520.25 K, 5000 kPa	642.5	–
520.27 K, 7000 kPa	664.6	–
529.04 K, 10000 kPa	678	–
529.91 K, 5000 kPa	619.5	–
530.11 K, 7000 kPa	641.3	–
530.36 K, 3000 kPa	595.4	–
534.46 K, 5000 kPa	–	5.06e-08
534.75 K, 7000 kPa	–	5.12e-08
534.77 K, 3000 kPa	–	5e-08
535.01 K, 10000 kPa	–	5.22e-08
540.06 K, 7000 kPa	618.1	–
540.09 K, 10000 kPa	651.8	–
540.12 K, 5000 kPa	595.3	–
540.66 K, 3000 kPa	570.8	–
548.94 K, 3000 kPa	551.9	–
549.74 K, 5000 kPa	574.5	–
549.76 K, 3000 kPa	–	4.77e-08
549.87 K, 10000 kPa	630.6	–
549.96 K, 5000 kPa	–	4.84e-08
549.97 K, 7000 kPa	–	4.9e-08
549.99 K, 7000 kPa	596.7	–
550.17 K, 10000 kPa	–	4.99e-08
558.46 K, 3000 kPa	529.8	–
559.93 K, 5000 kPa	551.9	–
561 K, 10000 kPa	607	–
562.07 K, 7000 kPa	570.2	–
565.49 K, 10000 kPa	–	4.76e-08
565.86 K, 5000 kPa	–	4.61e-08
565.87 K, 7000 kPa	–	4.67e-08
566.27 K, 3000 kPa	–	4.55e-08
